Patent US9474788B2, “Methods for the reactivation of latent HIV using cytosine methylation inhibitors and NF-KB activators” (priority 2010, dated 2016)
Like-named read-outs stand apart in the source and are kept apart here.

Key:
Format in all cases: cell-based
[1] = system: latent HIV-1
Protocol: (§1) Jurkat and J-Lat cells were cultured in RPMI (Invitrogen) with 5% FBS (Gemini Bio-Products) and 5% Fetalplex (Gemini Bio-Products). For analysis of virus reactivation by flow cytometry, aza-CdR (Sigma) and TNF-α (Biosource) treatments were for 24 h, after which medium was replaced. Reactivation was assayed after an additional 48 h. For chromatin immunoprecipitation (ChIP) and bisulfite-mediated methylcytosine mapping, cells were treated for 30 h with aza-CdR. For cycloheximide experiments, cells were treated for 24 hours, either with or without 40 ng/ml cycloheximide.
J-Lat cells were transfected by electroporation using Kit R and program O-28 (Amaxa Biosystems). HIV-1 reactivation was assayed by flow cytometry four days post-transfection. […] Supernatant was harvested 48 h post-transfection and frozen at −80° C. in aliquots. Aliquots were thawed, diluted 1:160, and used to infect Jurkat T cells overnight at a multiplicity of 0.1 infectious units per cell with 2 ml supernatant per 1 million cells. Three days post-infection, GFP-negative and -positive cell populations were isolated by fluorescence-activated cell sorting (FACS). […] Cells were cotransfected with a plasmid encoding the tomato fluorescent protein and either methylated or unmethylated pEGFP-N1, and the tomato-positive population was analyzed for GFP expression. For measurement of J-Lat activation, cells were infected with undiluted virus and analyzed by flow cytometry 2 days post-infection.
Cell fluorescence was measured with the fluorescence activated cell sorter FACSCalibur or LSRII (BD Biosciences). Cell sorting was performed with the fluorescence activated cell sorting (FACS) Vantage DiVa (BD Biosciences). To phenotype CD4^+ T cells, the cells were stained with the following monoclonal antibodies (mAbs): phycoerythrin-conjugated (PE)—anti-CD4, TC—anti-CD45RA, or PE—anti-CXCR4 (Caltag). Flow cytometry and sorting data were analyzed with FlowJo software (Treestar) or Cellquest (BD Biosciences), in the case of primary cells. Analysis was restricted to the live population, as defined by the forward versus side scatter profile. Flowjo transforms fluorescence plots to a linear scale at the origin, permitting intelligible display of cells with low fluorescence.

[2] = system: latent HIV-1; assay: Latent HIV-1 reactivation in a polyclonal population of latently infected Jurkat T cells, GFP by flow cytometry; details: about two months after infection
Protocol: as §1
J-Lat cells were transfected by electroporation using Kit R and program O-28 (Amaxa Biosystems). […] Three days post-infection, GFP-negative and -positive cell populations were isolated by fluorescence-activated cell sorting (FACS). […] Cells were cotransfected with a plasmid encoding the tomato fluorescent protein and either methylated or unmethylated pEGFP-N1, and the tomato-positive population was analyzed for GFP expression. For measurement of J-Lat activation, cells were infected with undiluted virus and analyzed by flow cytometry 2 days post-infection.
Cell fluorescence was measured with the fluorescence activated cell sorter FACSCalibur or LSRII (BD Biosciences). Cell sorting was performed with the fluorescence activated cell sorting (FACS) Vantage DiVa (BD Biosciences). […]

[3] = system: HIV-1 CpG islands; assay: Bisulfite-mediated methylcytosine mapping of HIV-1 in J-Lat 6.3; details: depending on the CpG analyzed, 30 h treatment
Protocol: as §1
Sodium bisulfite treatment was performed according to the Pikaard protocol (on the internet at http://followed by www(dot)biology(dot)wustl(dot)edu/pikaard/PDFs and protocol files/bisulfite sequencing(dot)pdf) with minor modifications. Jurkat T cell DNA was digested overnight with Pst I and purified with the Qiaquick PCR Purification Kit (Qiagen). Bisulfite-treated DNA was amplified in nested PCR reactions with the following reaction conditions: denature (95° C., 5 minutes), cycle 35 times (95° C., 30 seconds then 60° C., 60 seconds), and extend (60° C., 7 minutes). […] Nucleotide sequence was determined of at least nine cloned inserts using the universal M13 reverse primer. The efficiency of sodium bisulfite conversion was calculated using the Quantification Tool for Methylation Analysis (QUMA) software.

[4] = system: HIV-1 CpG island 2; assay: Chromatin immunoprecipitation of factor recruitment to the HIV-1 provirus in J-Lat 6.3
Protocol: as §1
ChIP was performed as described previously with modifications. J-Lat 6.3 cells Cells were diluted to 5×10^5 per ml, lysed, and sonicated (Model 500 Ultrasonic Dismembranator, Fisher Scientific). Lysates were incubated overnight with 5 μg of antibody against MBD2 (Upstate Cell Signaling Solutions cat. 07-198), HDAC2 (Santa Cruz Biotechnology cat. sc-7899) or Sp1 (Santa Cruz Biotechnology cat. sc-59). Immune complexes were recovered by incubation for 1 h with protein A agarose beads (Invitrogen). Immunoprecipitated DNA was quantified by quantitative PCR using the 7900HT Sequence Detection System (Applied Biosystems) and 2× Hot Sybr real time PCR kit (Molecular Cloning Laboratories). Negative control DNA was assayed using 5USBACT and 3USBACT as primers, CpG island 1 was assayed using oSK92 (5′-[…]-3′) (SEQ ID NO:23) and oSK93 (5′-[…]-3′) (SEQ ID NO:24) as primers, and CpG island 2 was assayed using oSK89 (5′-[…]-3′) (SEQ ID NO:25) and oSK90 (5′-[…]-3′) (SEQ ID NO:26) as primers. SDS 2.3 software (Applied Biosystems) was used to analyze precipitated DNA relative to input and to confirm the specificity of each PCR reaction by melting curve analysis.

[5] = system: HIV-1 transcription; assay: Reverse transcription and quantitative PCR of HIV-1 mRNA in J-Lat cells; details: 24 hours, 40 ng/ml cycloheximide
Protocol: as §1
J-Lat cells were transfected with short interfering RNAs (siRNAs) corresponding to the MBD2 mRNA or non-targeting control short interfering RNAs (siRNAs) (siGENOME SMARTpool or siCONTROL pool, Dharmacon) by electroporation using Kit R and program O-28 (Amaxa Biosystems). […] Quantitative PCR was performed with the 7900HT Sequence Detection System (Applied Biosystems) and the 2× Hot Sybr real time PCR kit (Molecular Cloning Laboratories), with each PCR reaction receiving 1/20 of the reverse transcription. […] SDS 2.3 software (Applied Biosystems) was used to quantify each cDNA relative to cyclophilin A and to confirm the specificity of each PCR reaction by melting curve analysis.

| Compound | Reactivation of latent HIV-1, MFI, fold greater than PBS control ([1]; J-Lat cell line 6.3) [fold] | Reactivation of latent HIV-1, MFI, fold greater than PBS control ([1]; J-Lat cell line 8.4) [fold] | Reactivation of latent HIV-1, MFI, fold greater than PBS control ([1]; J-Lat cell line 9.2) [fold] | Reactivation of latent HIV-1, MFI, fold greater than PBS control ([1]; J-Lat cell line 15.4) [fold] | Effect on HIV-1 gene expression (mean fluorescence intensity or proportion of GFP-positive cells) ([1]; J-Lat lines 6.3, 8.4, 9.2 and 15.4) | Proportion of cells with active virus, fold greater [2] | Decrease in methylation [3] [%] | HDAC2 recruitment to CpG island 2 [4] | MBD2 recruitment to CpG island 2 [4] | Sp1 recruitment to CpG island 2 [4] | HIV-1 transcription in the presence of cycloheximide [5] | GFP expression after treatment of J-Lat cells with TNF-α ([1]; 40 ng/ml cycloheximide) | Reactivation of latent virus ([1]; J-Lat A2 (HIV-derived vector encoding only viral promoter and Tat)) |
| --- | --- | --- | --- | --- | --- | --- | --- | --- | --- | --- | --- | --- | --- |
| Nc1ncn([C@H]2C[C@H](O)[C@@H](CO)O2)c(=O)n1 [Aza-CdR, 5-aza-2′ deoxycytidine] | 1.8 | 1.6 | 1.1 | 1 | little effect | two-fold greater proportion of cells with active virus | ≤ 50 | lost | eliminated | increased Sp1 recruitment | still induced HIV-1 transcription |  |  |
| C[C@@H]1C[C@@H]([C@H](O)CC2CC(=O)NC(=O)C2)C(=O)[C@@H](C)C1 [Cycloheximide, cycloheximide] |  |  |  |  |  |  |  |  |  |  |  | inhibition of GFP expression |  |
| TNF-a | 7.1 | 2.5 | 2.3 | 1.7 |  | 1.5 fold |  |  |  |  |  |  | reactivated the majority of latent virus |
